Source: ChEMBL document CHEMBL3739323, “Design, synthesis, and biological evaluation of novel quinazolinyl-diaryl urea derivatives as potential anticancer agents” (Eur J Med Chem, 2016)
The source made the active and inactive calls. No cut-off for these calls is given here.

Tests used:
A549 [1] = experiment: Induction of apoptosis in human A549 cells assessed as upregulation of caspase-3 expression after 48 hrs by Western blot analysis; type: functional, cell-based
A549 [2] = experiment: Induction of apoptosis in human A549 cells assessed as viable cells at 20 uM after 48 hrs by Annexin-V/Propidium iodide dual staining based flow cytometric analysis (reference value: 92.46 +/- 4.23%); type: functional; conditions: A549, 48 h, read-out: Activity
A549 [3] = experiment: Induction of apoptosis in human A549 cells assessed as necrotic cells at 10 uM after 6 hrs by Annexin-V-FITC/Propidium iodide staining based flow cytometric analysis (reference value: 0.28 +/- 0.09%); type: functional
A549 [4] = experiment: Induction of apoptosis in human A549 cells assessed as viable cells at 10 uM after 6 hrs by Annexin-V-FITC/Propidium iodide staining based flow cytometric analysis (reference value: 95.48 +/- 2.03%); type: functional; conditions: A549, 6 h, read-out: Activity
A549 [5] = experiment: Induction of apoptosis in human A549 cells assessed as viable cells at 5 uM after 6 hrs by Annexin-V-FITC/Propidium iodide staining based flow cytometric analysis (reference value: 95.48 +/- 2.03%); type: functional; conditions: A549, 6 h, read-out: Activity
[6] = molecular target: Serine/threonine-protein kinase B-raf (Homo sapiens) (UniProt P15056); experiment: Inhibition of B-Raf in human A549 cells at 5 to 20 uM after 48 hrs by Western blot analysis; type: cell-based
A549 [7] = experiment: Induction of apoptosis in human A549 cells assessed as viable cells at 10 uM after 48 hrs by Annexin-V-FITC/Propidium iodide staining based flow cytometric analysis (reference value: 92.46 +/- 4.23%); type: functional; conditions: A549, 48 h, read-out: Activity
A549 [8] = experiment: Induction of apoptosis in human A549 cells assessed as increase in ROS production at 20 uM after 6 hrs by DCF staining based luminescence spectrometric analysis relative to control; type: functional
A549 [9] = experiment: Induction of apoptosis in human A549 cells assessed as necrotic cells at 10 uM after 48 hrs by Annexin-V/Propidium iodide dual staining based flow cytometric analysis (reference value: 2.57 +/- 0.39%); type: functional
A549 [10] = experiment: Induction of apoptosis in human A549 cells assessed as late apoptotic cells at 10 uM after 6 hrs by Annexin-V-FITC/Propidium iodide staining based flow cytometric analysis (reference value: 0.41 +/- 0.19%); type: functional
HepG2 = experiment: Antiproliferative activity against human HepG2 cells by MTT assay; type: functional, cell-based
A549 [11] = experiment: Induction of apoptosis in human A549 cells assessed as early apoptotic cells at 5 uM after 6 hrs by Annexin-V-FITC/Propidium iodide staining based flow cytometric analysis (reference value: 3.83 +/- 0.49%); type: functional
A549 [12] = experiment: Induction of apoptosis in human A549 cells assessed as early apoptotic cells at 20 uM after 48 hrs by Annexin-V/Propidium iodide dual staining based flow cytometric analysis (reference value: 3.53 +/- 0.89%); type: functional

Sequence of Serine/threonine-protein kinase B-raf (Homo sapiens) (P15056 whole entry): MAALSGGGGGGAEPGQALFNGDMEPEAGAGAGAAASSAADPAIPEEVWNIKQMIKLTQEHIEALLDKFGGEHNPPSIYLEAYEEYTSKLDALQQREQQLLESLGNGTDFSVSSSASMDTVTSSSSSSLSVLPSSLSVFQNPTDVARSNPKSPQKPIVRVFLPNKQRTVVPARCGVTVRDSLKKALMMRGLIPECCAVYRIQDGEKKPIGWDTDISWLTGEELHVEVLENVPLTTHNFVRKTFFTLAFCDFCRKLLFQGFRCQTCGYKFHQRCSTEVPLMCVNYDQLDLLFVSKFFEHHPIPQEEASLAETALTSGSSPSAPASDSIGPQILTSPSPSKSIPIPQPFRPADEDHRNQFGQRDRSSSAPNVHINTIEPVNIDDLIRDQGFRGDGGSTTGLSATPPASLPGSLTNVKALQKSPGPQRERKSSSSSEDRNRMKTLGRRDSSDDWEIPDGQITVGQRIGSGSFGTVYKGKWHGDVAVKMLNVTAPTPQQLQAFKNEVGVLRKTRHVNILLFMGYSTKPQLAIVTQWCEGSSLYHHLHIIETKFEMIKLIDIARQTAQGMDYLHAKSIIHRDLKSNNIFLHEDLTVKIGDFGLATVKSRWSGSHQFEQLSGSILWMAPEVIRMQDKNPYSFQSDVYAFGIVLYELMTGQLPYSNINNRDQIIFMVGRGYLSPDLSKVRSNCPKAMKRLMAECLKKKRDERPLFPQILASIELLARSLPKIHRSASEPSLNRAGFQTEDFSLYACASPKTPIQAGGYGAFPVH

In the case of `COc1cc2ncnc(NCc3cccc(NC(=O)Nc4ccc(C(C)(C)C)cc4)c3)c2cc1OC`, the Activity (A549 [1]) is reported as “Dose-dependent effect”, the viability at 20 µM (A549 [2]) is reported as 51.6% and the Activity (A549 [3]) is reported as 0.56%. For the same compound, the viability at 10 µM (A549 [4]) was 81.8%, the viability at 5 µM (A549 [5]) was 89.4% and the inhibition [6] was “inactive”. It also gave a viability at 10 µM (A549 [7]) of 67.5%, an Activity (A549 [8]) of 54.3% and an Activity (A549 [9]) of 22.9%. The Activity (A549 [10]) was 5.4%, the IC50 (HepG2) was 6.85 µM and the Activity (A549 [11]) was 4.21%. The Activity (A549 [12]) was 0.57%.
